Measured values published in US9346761B2, “Arginine methyltransferase inhibitors and uses thereof” (Epizyme, Inc., priority 2013, dated 2016).
Counter-ions that a name gives are not always drawn.

What was measured:
[1] = target: T1, Full-length human PRMT1 isoform 1 (Homo sapiens, UniProt Q99873); assay: PRMT1 biochemical assay (3H-SAM Flashplate, peptide substrate)
T1 construct: GST-tagged PRMT1; made in house; host or cells: High Five insect cells (baculovirus, pFastBacI)
In short: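 GST-tagged full-length PRMT1 from baculovirus-infected cells, preincubated 30 min at room temperature with compound in 20 mM Bicine pH 7.6, TCEP, BSG, Tween 20. Reaction started with 3H-SAM plus biotinylated peptide, stopped with 300 uM unlabelled SAM. Streptavidin Flashplate capture and scintillation counting; % inhibition curve-fitted for IC50.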

Full-length human PRMT8 = target: T2, Full-length human PRMT8 (Homo sapiens, UniProt Q9NR22); assay: PRMT8 biochemical assay (3H-SAM Flashplate, peptide substrate)
T2 construct: Full-length human PRMT8 (NM_019854.4) isoform 1 transcript clone; made in house
T2 sequence (Q9NR22 whole entry, canonical isoform): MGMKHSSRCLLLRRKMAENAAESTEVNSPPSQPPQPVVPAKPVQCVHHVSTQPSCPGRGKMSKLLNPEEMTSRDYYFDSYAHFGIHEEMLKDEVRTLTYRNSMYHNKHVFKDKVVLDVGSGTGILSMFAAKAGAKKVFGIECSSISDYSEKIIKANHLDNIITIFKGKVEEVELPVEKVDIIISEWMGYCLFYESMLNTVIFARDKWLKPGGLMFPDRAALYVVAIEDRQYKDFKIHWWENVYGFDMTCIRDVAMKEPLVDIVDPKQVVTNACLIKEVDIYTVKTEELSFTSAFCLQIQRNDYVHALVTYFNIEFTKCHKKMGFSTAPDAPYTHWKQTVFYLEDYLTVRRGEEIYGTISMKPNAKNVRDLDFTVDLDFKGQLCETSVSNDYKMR
Description: General Materials. S-adenosylmethionine (SAM), S-adenosylhomocysteine (SAH), bicine, Tween20, dimethylsulfoxide (DMSO), bovine skin gelatin (BSG), isopropyl-β-D-thiogalactopyranoside (IPTG), and Tris(2-carboxyethyl)phosphine hydrochloride solution (TCEP) were purchased from Sigma-Aldrich at the highest level of purity possible. ^3H-SAM was purchase from American Radiolabeled Chemicals with a specific activity of 80 Ci/mmol. 384-well streptavidin Flashplates were purchased from PerkinElmer.
Substrates. Peptide representative of human histone H4 residues 31-45 was synthesized with an N-terminal linker-affinity tag motif and a C-terminal amide cap by 21st Century Biochemicals.
Protein Expression. E. coli (BL21(DE3) Gold, Stratagene) made competent by the CaCl2 method were transformed with the PRMT8 construct and ampicillin selection. Protein over-expression was accomplished by growing the PRMT8 expressing E. coli clone and inducing expression with 0.3 mM IPTG at 16° C. The culture was grown for 12 hours, harvested by centrifugation, and stored at −80° C. for purification.
Protein Purification. […] GST-tagged PRMT8 was eluted with 50 mM Tris, 2 mM glutathione, pH 7.8. Pooled fractions were cleaved by thrombin (10 U) and dialysed in buffer A. GST was removed by reloading the cleaved protein sample onto glutathione sepharose column and PRMT8 was collected in the flow-through fractions. PRMT8 was purified further by ceramic hydroxyapatite chromatography. The column was washed with 50 mM phosphate buffer, 100 mM NaCl, 5% glycerol, 5 mM β-mercaptoethanol, pH 7.8 and PRMT8 was eluted by 100 mM phosphate in the same buffer. Protein was concentrated and buffer was exchanged to 50 mM Tris, 300 mM NaCl, 10% glycerol, 5 mM β-mercaptoethanol, pH 7.8 by ultrafiltration.
General Procedure for PRMT8 Enzyme Assays on Peptide Substrates. The assays were all performed in a buffer consisting of 20 mM Bicine (pH=7.6), 1 mM TCEP, 0.005% BSG, and 0.002% Tween 20, prepared on the day of use. […] DMSO (1 ul) was added to Columns 11, 12, 23, 24, rows A-H for the maximum signal control and 1 ul of SAH, a known product and inhibitor of PRMT8, was added to columns 11, 12, 23, 24, rows I-P for the minimum signal control. A cocktail (40 ul) containing the PRMT8 enzyme was added by Multidrop Combi (Thermo-Fisher). The compounds were allowed to incubate with PRMT8 for 30 min at room temperature, then a cocktail (10 ul) containing ^3H-SAM and peptide was added to initiate the reaction (final volume=51 ul). […] The assays were stopped by the addition of non-radiolabeled SAM (10 ul) to a final concentration of 400 uM, which dilutes the ^3H-SAM to a level where its incorporation into the peptide substrate is no longer detectable. 50 ul of the reaction in the 384-well polypropylene plate was then transferred to a 384-well Flashplate and the biotinylated peptides were allowed to bind to the streptavidin surface for at least 1 hour before being washed once with 0.1% Tween20 in a Biotek ELx405 plate washer. The plates were then read in a PerkinElmer TopCount plate reader to measure the quantity of ^3H-labeled peptide bound to the Flashplate surface, measured as disintegrations per minute (dpm) or alternatively, referred to as counts per minute (cpm).
Where dpm=disintegrations per minute, cmpd=signal in assay well, and min and max are the respective minimum and maximum signal controls.
Where top and bottom are the normally allowed to float, but may be fixed at 100 or 0 respectively in a 3-parameter fit. The Hill Coefficient normally allowed to float but may also be fixed at 1 in a 3-parameter fit. Y is the % inhibition and X is the compound concentration.

T1 sequence (Q99873 with tags, fused parts or gaps): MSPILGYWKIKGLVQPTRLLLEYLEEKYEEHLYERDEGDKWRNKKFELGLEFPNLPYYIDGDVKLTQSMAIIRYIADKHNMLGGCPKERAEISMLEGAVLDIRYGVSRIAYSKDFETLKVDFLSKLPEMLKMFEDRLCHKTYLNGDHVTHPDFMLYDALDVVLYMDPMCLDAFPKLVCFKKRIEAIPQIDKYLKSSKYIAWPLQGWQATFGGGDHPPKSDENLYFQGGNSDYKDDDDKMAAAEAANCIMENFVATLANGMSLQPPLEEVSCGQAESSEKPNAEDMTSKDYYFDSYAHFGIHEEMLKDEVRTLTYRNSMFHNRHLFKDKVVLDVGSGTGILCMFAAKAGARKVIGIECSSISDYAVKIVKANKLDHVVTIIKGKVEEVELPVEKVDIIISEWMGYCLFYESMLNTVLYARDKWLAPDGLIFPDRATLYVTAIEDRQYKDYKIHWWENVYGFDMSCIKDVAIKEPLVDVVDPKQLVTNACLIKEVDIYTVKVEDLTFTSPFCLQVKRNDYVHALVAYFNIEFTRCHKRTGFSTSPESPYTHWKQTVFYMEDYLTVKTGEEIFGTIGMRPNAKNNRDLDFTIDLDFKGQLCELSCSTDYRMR

Row | Compound | IC50 [1] [nM] | IC50 (Full-length human PRMT8) [nM]
1 | CNCCN(C)Cc1cn(C2CC2)nc1-c1ccc(F)cc1 [Compound 13] | 1010 to 3000 | > 10000
2 | CNCCN(C)Cc1cnn(C2CC2)c1-c1ccc(F)cc1 [Compound 14] | 101 to 1000 | 1010 to 3000
3 | CNCCN(C)Cc1cn(C(C)C)nc1-c1ccc(F)cc1 [Compound 15] | 3010 to 10000 | > 10000
4 | CNCCN(C)Cc1cnn(C(C)C)c1-c1ccc(F)cc1 [Compound 16] | 1010 to 3000 | > 10000
5 | CNCCN(C)Cc1cn[nH]c1-c1ccc(C#N)cc1 [Compound 17] | < 100 | < 100
6 | CNCCN(C)Cc1cn[nH]c1-c1cc(F)cc(F)c1 [Compound 18] | < 100 | 101 to 1000
7 | CCCc1ccc(-c2n[nH]cc2CN(C)CCNC)cc1 [Compound 20] | < 100 | < 100
8 | CNCCN(C)Cc1c[nH]nc1-c1cccc([N+](=O)[O-])c1 [Compound 21] | < 100 | 101 to 1000
9 | CNCCN(C)Cc1c[nH]nc1-c1cccc(C#N)c1 [Compound 22] | 101 to 1000 | 1010 to 3000
10 | CNCCN(C)Cc1c[nH]nc1-c1ccccc1OC [Compound 23] | 101 to 1000 | 3010 to 10000
11 | CNCCN(C)Cc1c[nH]nc1-c1cccc(OC)c1 [Compound 24] | < 100 | 101 to 1000
12 | CNCCN(C)Cc1c[nH]nc1-c1ccc(OC)cc1 [Compound 25] | < 100 | 101 to 1000
13 | CNCCN(C)Cc1c[nH]nc1-c1cccc(O)c1 [Compound 26] | 101 to 1000 | 1010 to 3000
14 | CNCCN(C)Cc1c[nH]nc1-c1ccc(O)cc1 [Compound 27] | < 100 | 101 to 1000
15 | CNCCN(C)Cc1c[nH]nc1-c1ccc(CO)cc1 [Compound 28] | < 100 | < 100
16 | CNCCN(C)Cc1c[nH]nc1-c1ccc(C)cc1C [Compound 29] | 101 to 1000 | 1010 to 3000
17 | CNCCN(C)Cc1cn(CCCC(O)CO)nc1-c1ccc(F)cc1 (stereo not drawn) [Compound 30] | 3010 to 10000 | > 10000
18 | CNCCN(C)Cc1cnn(CCCC(O)CO)c1-c1ccc(F)cc1 (stereo not drawn) [Compound 31] | 101 to 1000 | 3010 to 10000
19 | CNCCN(C)Cc1c[nH]nc1-c1ccc(N)cc1 [Compound 33] | 101 to 1000 | 1010 to 3000

Row | Compound | IC50 [1] [nM] | IC50 (Full-length human PRMT8) [nM]
20 | CNCCN(C)Cc1c[nH]nc1-c1ccc(Oc2ccccc2)cc1 [Compound 37] | < 100 | < 100
21 | CNCCN(C)Cc1c[nH]nc1-c1ccccc1C(F)(F)F [Compound 38] | 1010 to 3000 | 3010 to 10000
22 | CNCCN(C)Cc1c[nH]nc1-c1ccccc1OC(F)(F)F [Compound 40] | 101 to 1000 | 3010 to 10000
23 | CCNC(=O)c1cccc(-c2n[nH]cc2CN(C)CCNC)c1 [Compound 43] | 101 to 1000 | 1010 to 3000
24 | CNCCN(C)Cc1c[nH]nc1-c1ccc(C(F)(F)F)cc1 [Compound 174] | < 100 | 101 to 1000
25 | CC(C)CC(=O)N1CCN(c2ccc(-c3n[nH]cc3CN(C)CCN)cc2)CC1 [Compound 180] | 101 to 1000 | 3010 to 10000
26 | CNCCN(C)Cc1c[nH]nc1-c1ccc(Cl)c(F)c1 [Compound 182] | < 100 | 101 to 1000
27 | CN(CCNC1CC1)Cc1c[nH]nc1-c1ccc(C#N)cc1 [Compound 183] | 1010 to 3000 | 3010 to 10000
28 | CN(CCN(C)C1CC1)Cc1c[nH]nc1-c1ccc(C#N)cc1 [Compound 184] | 1010 to 3000 | 3010 to 10000
29 | CN(CCN1CCC1)Cc1c[nH]nc1-c1ccc(C#N)cc1 [Compound 185] | 1010 to 3000 | 3010 to 10000
30 | CC(C)Oc1cccc(-c2n[nH]cc2CN(C)CCN)c1 [Compound 187] | 101 to 1000 | 1010 to 3000
31 | CC(C)Oc1cc(-c2n[nH]cc2CN(C)CCN)ccc1F [Compound 188] | 101 to 1000 | 1010 to 3000
32 | CCC(=O)N1CCN(c2ccc(-c3n[nH]cc3CN(C)CCN)cc2)CC1 [Compound 189] | 101 to 1000 | 1010 to 3000
33 | CC(C)CN1C(=O)COc2ccc(-c3n[nH]cc3CN(C)CCN)cc21 [Compound 191] | 101 to 1000 | 3010 to 10000
34 | CN(CCN)Cc1c[nH]nc1-c1ccc2c(c1)OCC(=O)N2C [Compound 192] | 101 to 1000 | 1010 to 3000
35 | CC(C)CN1C(=O)COc2cc(-c3n[nH]cc3CN(C)CCN)ccc21 [Compound 193] | < 100 | 101 to 1000
36 | CN(CCN)Cc1c[nH]nc1-c1ccc(OCCO)cc1 [Compound 194] | < 100 | 101 to 1000
37 | CN(CCN)Cc1c[nH]nc1-c1ccc(OCCCO)cc1 [Compound 195] | < 100 | 101 to 1000
38 | CN(CCN)Cc1c[nH]nc1-c1ccc2c(c1)N(C)C(=O)CO2 [Compound 196] | 101 to 1000 | 1010 to 3000

Row | Compound | IC50 [1] [nM] | IC50 (Full-length human PRMT8) [nM]
39 | CCNC(=O)c1cccc(-c2n[nH]cc2CN(C)CCN)c1 [Compound 197] | 101 to 1000 | 1010 to 3000
40 | CCn1cc(CN(C)CCNC)c(-c2ccc(OC(C)C)cc2)n1 [Compound 213] | < 100 | –
41 | CNCCN(C)Cc1cn(C2CCCC2)nc1-c1ccc(OC(C)C)cc1 [Compound 214] | < 100 | –
42 | CNCCN(C)Cc1cn(C2CCOC2)nc1-c1ccc(OC(C)C)cc1 (stereo not drawn) [Compound 215] | < 100 | –
43 | CNCCN(C)Cc1cnn(C2CCOC2)c1-c1ccc(OC(C)C)cc1 (stereo not drawn) [Compound 216] | < 100 | –
44 | CNCCN(C)Cc1cn(Cc2ccccc2)nc1-c1ccc(OC(C)C)cc1 [Compound 217] | < 100 | –
45 | C=CCn1cc(CN(C)CCNC)c(-c2ccc(OC(C)C)cc2)n1 [Compound 218] | < 100 | –
46 | C=CCn1ncc(CN(C)CCNC)c1-c1ccc(OC(C)C)cc1 [Compound 219] | < 100 | –
47 | CNCCN(C)Cc1cn(C)nc1-c1ccc(OC(C)C)cc1 [Compound 243, N1-((3-(4-isopropoxyphenyl)-1-methyl-1H-pyrazol-4-yl)methyl)-N1,N2-dimethylethane-1,2-diamine] | < 100 | –
48 | CNCCN(C)Cc1cn(Cc2cccnc2)nc1-c1ccc(OC(C)C)cc1 [Compound 246] | < 100 | –
49 | CNCCN(C)Cc1cn(Cc2ccccn2)nc1-c1ccc(OC(C)C)cc1 [Compound 247] | 101 to 1000 | –
50 | CNCCN(C)Cc1cn(CC(=O)OC)nc1-c1ccc(OC(C)C)cc1 [Compound 248] | 101 to 1000 | –
51 | CNCCN(C)Cc1cn(CC(N)=O)nc1-c1ccc(OC(C)C)cc1 [Compound 251] | 101 to 1000 | –
52 | CCn1ncc(CN(C)CCNC)c1-c1ccc(OC(C)C)cc1 [Compound 252] | < 100 | –
53 | CNCCN(C)Cc1cn(CCOC)nc1-c1ccc(OC(C)C)cc1 [Compound 253, N1-((3-(4-isopropoxyphenyl)-1-(2-methoxyethyl)-1H-pyrazol-4-yl)methyl)-N1,N2-dimethylethane-1,2-diamine hydrochloride] | 101 to 1000 | –
54 | CNCCN(C)Cc1cn(C2CCC2)nc1-c1ccc(OC(C)C)cc1 [Compound 254, N1-((1-cyclobutyl-3-(4-isopropoxyphenyl)-1H-pyrazol-4-yl)methyl)-N1,N2-dimethylethane-1,2-diamine hydrochloride] | < 100 | –
55 | CNCCN(C)Cc1cnn(C2CCCC2)c1-c1ccc(OC(C)C)cc1 [Compound 255] | < 100 | –
56 | C=C(C)C(=O)Nc1cccc(-c2[nH]ncc2CN(C)CCNC)c1 [Compound 257] | 101 to 1000 | –
57 | C=CC(=O)Nc1cccc(-c2[nH]ncc2CN(C)CCNC)c1 [Compound 258] | < 100 | –
